Reference: patent US8097624B2, “Cycloalkyl derivatives of 3-hydroxy-4-pyridinones” (Apotex Inc., priority 2006, dated 2012)

Legend:
[1] = Metal complexation constants, Cu system; assay type: binding
Protocol: (§1) In a typical experiment, the sample solution was prepared by the following method: Apo6619 (31.91 mg) was weighed into a 25-ml beaker followed by the addition of 0.1 M NaCl (18.9 ml). The mixture was sonicated for 10 minutes to give a clear colorless solution. Aluminum stock solution (atomic absorption standard, Aldrich, 971 μl, 3.59×10^−5 mole) was pipetted into the solution followed by the addition of 1.000 N NaOH (229 μl) to give pH 8.56. The molar ratio between the total Aluminum and the total Apo6619 was 1:4. For M^2+ metals, a molar ratio of 1:3 was used. Nitrogen was allowed to bubble through the solution. The mixture was allowed to equilibrate at 22° C. for 2 hours. 1.000 N Hydrochloric acid (264 μl) was then added to the solution to give pH 2.20. The solution was allowed to equilibrate at 22° C. for 1 hour.
(§2) The solution was titrated against 1.000 N NaOH at 22° C. to reach pH 11.0. For each addition of base, the solution was allowed to equilibrate until a constant pH reading was reached. The volume of the base added and the pH reading were then recorded for each measurement. 93 measurements were used in the experiment.
(§3) The data set of pH vs. base volume was analyzed using Hyperquad 2000. Given the model: L^−+H^+ ? LH (pKa1), LH+H^+ ? LH2^+ (pKa2), Al^3++L^− ? ^AlL^2+ (K1), AlL^2++L^− ? AlL2^+ (K2), AlL2^++L^− ? AlL3 (K3), and β3=K1K2K3, the stepwise formation constants for Al-Apo6619 system were optimized as log K1=12.6(2); log K2=9.2(1); log K3=8.4(1); log β3=30.2(2).
(§4) pM^n+ is defined as −log [M(H2O)m]^n+ at physiological conditions, i.e.: pH 7.4, a ligand concentration of 10 μM, and a metal concentration of 1 μM.
(§5) To calculate pM^n+ for a MLn system, βn and pKa values are needed (βn are the formation constants for M^n++n L^− ? MLn; pKa are the equilibrium constants for L^−+n H^+ ? LHn^(n−1)+). The pM^n+ can be calculated by using Hyss software (Hyperquad Stimulation and Speciation software: HYSS2© 2000 Protonic Sofware).

[2] = Metal complexation constants, Ca system; assay type: binding
Protocol: as §1, §2, §3, §4, §5

[3] = Metal complexation constants, Al system (potentiometric titration; pM by Hyss); assay type: binding; details: pH 7.4, ligand 10 μM, metal 1 μM
Protocol: as §1, with “1.000 N Hydrochloric acid (264 μl) was then added to the solution to give pH 2.20. The solution was allowed to equilibrate at 22° C. for 1 hour.” left out
The solution was titrated against 1.000 N NaOH at 22° C. to reach pH 11.0. For each addition of base, the solution was allowed to equilibrate until a constant pH reading was reached. The volume of the base added and the pH reading were then recorded for each measurement. […]
The data set of pH vs. base volume was analyzed using Hyperquad 2000. […]
as §5

[4] = Metal complexation constants, Mg system; assay type: binding
Protocol: as §1, §2, §3, §4, §5

[5] = Metal complexation constants, Mn system; assay type: binding
Protocol: as §1, §2, §3, §4, §5

[6] = Metal complexation constants, Zn system; assay type: binding
Protocol: as §1, §2, §3, §4, §5

[7] = Drug Metab. Dispo. 1992; cited from earlier work
[8] = pH 7.4, ligand 10 μM, metal 1 μM

CNC(=O)c1c(O)c(=O)cc(C)n1C1CC1 [Apo6619, 1-Cyclopropyl-3-hydroxy-6-methyl-4-oxo-1,4-dihydro-pyridine-2-carboxylic Acid Methylamide]
log K1 Cu(II) ([1]; log scale): 8.9
log K2 Cu(II) ([1]; log scale): 7.7
log β2 Cu(II) ([1]; log scale): 16.6
PM Cu(II) [1, 8]: 10
log K1 Ca(II) ([2]; log scale): 3
log K2 Ca(II) ([2]; log scale): 2.1
log β2 Ca(II) ([2]; log scale): 5.1
PM Ca(II) [2, 8]: 6.0
PM Al(III) [3]: 13.9
log K1 Mg(II) ([4]; log scale): 4.1
log K2 Mg(II) ([4]; log scale): 3.2
log β2 Mg(II) ([4]; log scale): 7.3
PM Mg(II) [4, 8]: 6.0
log K1 Mn(II) ([5]; log scale): 5.1
log K2 Mn(II) ([5]; log scale): 4.3
log β2 Mn(II) ([5]; log scale): 9.4
PM Mn(II) [5, 8]: 6.0
log K1 Zn(II) ([6]; log scale): 6.3
log K2 Zn(II) ([6]; log scale): 5.8
log β2 Zn(II) ([6]; log scale): 12.1
PM Zn(II) [6, 8]: 6.4

Cc1c(O)c(=O)ccn1C [deferiprone, 1,2-dimethyl-3-hydroxy-4-pyridinone, reference compound]
administered dose recovered in the urine as the non-chelating O-glucuronide [7]: more than 85%
